Reference: publication PMC11284788, “NN1213 – A Potent, Long-Acting, and Selective Analog of Human Amylin” (Journal of Medicinal Chemistry, 2024)

How the values were obtained:
DIO rats = assay: DIO rat weight loss assay; format: in vivo; conditions: for Absolute body weight Day 21: mean ± SEM; for reduction in body weight relative to baseline: 21 days, n = 8/group
Experimental: The ability of NN1213 to reduce body weight was tested in DIO rats fed an HFD. Rats were dosed once daily sc with either vehicle or NN1213 (n = 8–10 per group). Food intake and body weight were measured daily on individually housed rats. […] Body fat and lean mass are expressed as changes from baseline.
VetXX, Specific CCD, Dechra, UK).
eaten within 30 min. […] In figure 4, mean accumulated food
rats were assessed in DIO rats.
controlled temperature conditions (22 °C).
Pharmacokinetic Evaluation.
Species n administration (nmol/kg) (h)

in vivo [1] = conditions: male, Sprague-Dawley, rat, iv
Experimental: Blood samples were collected at fixed time points postdose to determine full PK profiles. Plasma samples were analyzed by ELISA. Plasma concentration–time profiles were analyzed by noncompartmental analysis.
Pharmacokinetic Evaluation. Rats: Male Sprague-Dawley rats (Taconic, Europe; body weight
approximately 400 g) were group-housed under controlled temperature conditions (20 °C ± 2 °C).
Blood was collected from the sublingual vein and rats were acclimated to handling on three separate
occasions prior to blood collection.
the tail vein of five rats. Sc injections were performed in the neck of another group of five rats. The
dosing volume was 2 mL/kg.
collected into test tubes containing EDTA for stabilization and kept on ice until centrifugation. Each
blood sample was 100 µL. Plasma was separated from whole blood by centrifugation and was stored at
–20 °C or lower until analysis.

in vivo [2] = conditions: male, beagle, dog, iv
cCTR = assay: Species-specific cAMP assay, cCTR; conditions: cAMP HTRF, transiently transfected BHK cells, 30 min room temperature, five experiments
hAMY1R = hAMY1R (Homo sapiens, UniProt O60894+P30988); assay: Species-specific cAMP assay, hAMY1R; conditions: ratio of cAMP EC50 values, human receptors
hAMY3R = molecular target: T1, hAMY3R (Homo sapiens, UniProt O60896+P30988); assay: Species-specific cAMP assay, hAMY3R; conditions: ratio of cAMP EC50 values, human receptors
T1 sequence (P30988 25-474): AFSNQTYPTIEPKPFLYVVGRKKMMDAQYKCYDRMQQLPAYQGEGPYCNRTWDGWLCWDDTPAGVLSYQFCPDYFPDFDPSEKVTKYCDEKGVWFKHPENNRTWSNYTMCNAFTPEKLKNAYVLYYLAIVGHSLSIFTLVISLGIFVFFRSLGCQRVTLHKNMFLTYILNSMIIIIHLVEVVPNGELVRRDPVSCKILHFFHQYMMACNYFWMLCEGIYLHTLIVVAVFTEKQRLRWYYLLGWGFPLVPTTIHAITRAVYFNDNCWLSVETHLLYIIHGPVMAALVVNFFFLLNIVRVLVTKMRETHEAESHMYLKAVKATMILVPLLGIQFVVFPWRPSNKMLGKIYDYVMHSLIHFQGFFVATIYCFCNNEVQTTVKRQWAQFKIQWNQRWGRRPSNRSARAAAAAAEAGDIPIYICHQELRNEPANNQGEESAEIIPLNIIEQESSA
T1 sequence (O60896 24-148 partner): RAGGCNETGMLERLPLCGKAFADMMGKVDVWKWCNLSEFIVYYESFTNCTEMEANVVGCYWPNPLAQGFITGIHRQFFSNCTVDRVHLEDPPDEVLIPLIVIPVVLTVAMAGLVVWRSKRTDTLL

cAMY1R = assay: Species-specific cAMP assay, cAMY1R; conditions: for Ratio CTR/AMY1R (canine, functional): ratio of cAMP EC50 values, canine receptors
cAMY3R = assay: Species-specific cAMP assay, cAMY3R; conditions: for Ratio CTR/AMY3R (canine, functional): ratio of cAMP EC50 values, canine receptors
rAMY3R [3] = molecular target: T2, rAMY3R (Rattus norvegicus, UniProt P32214+Q9JJ73); assay: Species-specific cAMP assay, rAMY3R; conditions: ratio of cAMP EC50 values, rat receptors
T2 sequence (P32214 25-479 isoform P32214-2 limits assumed): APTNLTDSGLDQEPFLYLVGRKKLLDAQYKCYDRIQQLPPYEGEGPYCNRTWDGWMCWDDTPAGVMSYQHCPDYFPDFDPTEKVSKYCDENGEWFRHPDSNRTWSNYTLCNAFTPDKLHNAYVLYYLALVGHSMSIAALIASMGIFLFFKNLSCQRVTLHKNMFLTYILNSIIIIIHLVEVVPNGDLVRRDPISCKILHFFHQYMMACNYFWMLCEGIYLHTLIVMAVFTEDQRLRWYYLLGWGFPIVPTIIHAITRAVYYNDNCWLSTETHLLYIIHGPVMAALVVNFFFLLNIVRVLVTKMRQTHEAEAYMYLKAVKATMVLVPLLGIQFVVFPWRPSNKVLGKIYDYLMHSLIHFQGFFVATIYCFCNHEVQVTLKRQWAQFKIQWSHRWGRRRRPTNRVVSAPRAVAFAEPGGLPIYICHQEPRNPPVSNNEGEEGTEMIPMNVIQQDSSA
T2 sequence (Q9JJ73 23-147 partner): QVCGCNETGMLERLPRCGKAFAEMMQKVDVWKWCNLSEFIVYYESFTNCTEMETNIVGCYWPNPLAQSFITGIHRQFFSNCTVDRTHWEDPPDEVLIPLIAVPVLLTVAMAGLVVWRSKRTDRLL

mAMY3R = molecular target: T3, mAMY3R (Mus musculus, UniProt Q60755+Q9WUP1); assay: Mouse receptor cAMP HTRF assay (BacMam, HeLa), mAMY3R; conditions: ratio of cAMP EC50 values, mouse receptors
T3 sequence (Q60755 42-496 isoform Q60755-2 limits assumed): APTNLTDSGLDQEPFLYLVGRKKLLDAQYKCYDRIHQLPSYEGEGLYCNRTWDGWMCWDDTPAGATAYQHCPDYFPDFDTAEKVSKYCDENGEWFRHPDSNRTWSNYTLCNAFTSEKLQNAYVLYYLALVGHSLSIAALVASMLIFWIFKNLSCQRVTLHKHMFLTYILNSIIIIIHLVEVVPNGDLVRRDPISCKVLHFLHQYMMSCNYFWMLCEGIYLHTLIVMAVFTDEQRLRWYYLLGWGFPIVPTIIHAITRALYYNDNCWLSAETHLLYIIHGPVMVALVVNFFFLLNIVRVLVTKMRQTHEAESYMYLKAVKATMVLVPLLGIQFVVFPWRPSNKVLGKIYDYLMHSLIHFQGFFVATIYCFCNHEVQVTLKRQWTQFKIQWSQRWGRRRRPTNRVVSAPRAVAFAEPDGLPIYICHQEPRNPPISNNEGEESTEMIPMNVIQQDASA
T3 sequence (Q9WUP1 24-147 partner limits assumed): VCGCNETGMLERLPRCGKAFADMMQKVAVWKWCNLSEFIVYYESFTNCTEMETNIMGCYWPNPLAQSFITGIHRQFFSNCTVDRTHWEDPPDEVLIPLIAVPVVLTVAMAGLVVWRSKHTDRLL
Experimental: Mouse Receptors (Functional Assay Only). Cell culture: HeLa cells were cultured in an incubator at 37 °C and 5% CO2, in cell culture medium (DMEM with 10% [v/v] FBS, 1% [w/w] penicillin/streptomycin).
Cell seeding in T75 flasks (day 1): The day before transfection of the cells, 2 x 10^6 HeLa cells were seeded in three T75 flasks and incubated overnight. Media was removed from 1–2 T175 flasks and cells were washed once with Dulbecco PBS (with Mg2+ and Ca2+). Cells were detached with 2 mL TrypLE Express for 5 min in an incubator. Five mL pre-warmed media was added to each T75 flask and mixed with the cell suspension. Cells were counted in 100 µL of this suspension. The cell suspension was centrifuged at 1200 rpm for 4 min and the supernatant was discarded. The cells were re-suspended in media and 2 x 10^6 cells were seeded in approximately 15 mL in each of the three T75 flasks. The flasks were incubated overnight.
with 20 µL poly-d-lysin/well for 2–3 h at 37 °C. The plates were washed twice with PBS and allowed
Transfection of cells (day 2): Reagents were acclimated to room temperature for 30 min. Media was
removed from the T75 flasks, and cells were washed once with PBS (with Mg2+ and Ca2+). Cells were
Seeding of transfected cells in assay plates (day 2): Following the 3-h transduction, T75 flasks were
washed once with PBS (with Mg2+ and Ca2+). […]
mL pre-warmed media and counted.

rAMY3R [4] = molecular target: T2, rAMY3R; assay: Whole-cell competition binding, rAMY3R; design: expressed in transfected cells; host or cells: BHK tk-ts 13, transient co-transfection (FuGENE 6); conditions: IC50 for the CTR divided by that of the AMYR, rat receptors
[5] = cAMP HTRF, transiently transfected BHK cells, 30 min room temperature, five experiments

Sequence of hAMY1R (O60894 27-148 partner, one chain of several): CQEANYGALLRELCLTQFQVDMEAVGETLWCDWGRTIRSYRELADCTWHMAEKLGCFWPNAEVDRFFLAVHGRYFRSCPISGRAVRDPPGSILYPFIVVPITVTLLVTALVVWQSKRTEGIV

SMILES: CC[C@H](C)[C@H](NC(=O)[C@H](C)NC(=O)CNC(=O)[C@H](Cc1ccccc1)NC(=O)[C@H](CC(N)=O)NC(=O)[C@@H]1CCCN1C(=O)[C@H](CO)NC(=O)[C@H](CO)NC(=O)[C@H](Cc1c[nH]cn1)NC(=O)[C@H](CCCNC(=N)N)NC(=O)[C@H](CC(C)C)NC(=O)[C@H](Cc1ccccc1)NC(=O)[C@H](CC(=O)O)NC(=O)[C@H](C)NC(=O)[C@H](CC(C)C)NC(=O)[C@H](CCCNC(=N)N)NC(=O)[C@H](CCC(N)=O)NC(=O)[C@@H](NC(=O)[C@H](C)NC(=O)[C@@H]1CSSC[C@H](NC(=O)[C@@H](N)CCCCNC(=O)CC[C@H](NC(=O)CC[C@H](NC(=O)CCCCCCCCCCCCCCCCCCC(=O)O)C(=O)O)C(=O)O)C(=O)N[C@@H](CC(N)=O)C(=O)N[C@@H]([C@@H](C)O)C(=O)N[C@@H](C)C(=O)N[C@@H]([C@@H](C)O)C(=O)N1)[C@@H](C)O)C(=O)N1CCC[C@H]1C(=O)N[C@@H](CO)C(=O)N[C@@H](CO)C(=O)N[C@H](C(=O)N[C@@H](CC(N)=O)C(=O)N[C@H](C(=O)NCC(=O)N[C@@H](CO)C(=O)N[C@@H](CCCNC(=N)N)C(=O)N[C@H](C(=O)N[C@@H](Cc1ccc(O)cc1)C(N)=O)[C@@H](C)O)C(C)C)[C@@H](C)O [NN1213]
- Absolute body weight Day 21 (DIO rats; 3 µg/kg (0.7 nmol/kg) sc once daily): 705.5 ± 38.4 g
- Absolute body weight Day 21 (DIO rats; 10 µg/kg (2.2 nmol/kg) sc once daily): 664.4 ± 19.3 g
- Absolute body weight Day 21 (DIO rats; 30 µg/kg (6.6 nmol/kg) sc once daily): 682.4 ± 27.7 g
- Absolute body weight Day 21 (DIO rats; 100 µg/kg (22 nmol/kg) sc once daily): 667.8 ± 11.9 g
- body weight lost after 21 days (DIO rats; high-dose group (22 nmol/kg) sc once daily): 69.6 ± 7.5 g
- body weight lost after 21 days (DIO rats; low-dose group 0.7 nmol/kg sc once daily): 32.0 ± 3.6 g
- reduction in body weight relative to baseline (DIO rats; sc once daily 0.7 nmol/kg): 4.7%
- reduction in body weight relative to baseline (DIO rats; sc once daily 2.2, 6.6, 22 nmol/kg doses): 8.7–9.3%
- half-life (in vivo [1]): 24 h
- half-life (in vivo [2]): 76 h
- cCTR pEC50 (cCTR): 9.39
- Ratio CTR/AMY1R (human, functional) (hAMY1R): 32
- Ratio CTR/AMY3R (human, functional) (hAMY3R): 51
- cAMY1R pEC50 (cAMY1R; [5]): 9.87
- Ratio CTR/AMY1R (canine, functional) (cAMY1R): 3
- Ratio CTR/AMY1R (canine, functional) (cAMY1R; listed as NN1213/peptide 21): 2
- cAMY3R pEC50 (cAMY3R; [5]): 9.74
- Ratio CTR/AMY3R (canine, functional) (cAMY3R): 2
- Ratio CTR/AMY3R (canine, functional) (cAMY3R; listed as NN1213/peptide 21): 3
- Ratio CTR/AMY3R (rat, functional) (rAMY3R [3]): 144
- Ratio CTR/AMY3R (mouse, functional) (mAMY3R): 24
- Ratio CTR/AMY3R (rat, binding) (rAMY3R [4]): 52
